Measured values: patent publication US20210330611A1, “THERAPY FOR NEUROLOGICAL DISEASES/DISORDERS” (priority 2020, published 2021)
Where “and” joins values, the source holds several entries; their conditions need not be identical. Equal values may be shown once. Where a name gives a salt, the structure may show the parent alone. Read-outs that look alike come from different tables or passages of the source.

Legend:
[1] = test system: primary rat microglia; experiment: Cell toxicity (dead cells, size <150 μm2) in coated fibrin (cFib) assay; details: primary microglia HTS, fibrin stimulation; decreased size (<150 μm^2) as marker of toxicity;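 as to Fibrin % cell toxicity: share of dead cells sized under 150 µm2 at 10 µM in fibrin-stimulated microglia HTS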
[2] = test system: fibrin- and LPS-induced microglia activation; experiment: cells; assay type: cell-based, rat; details: for inhibition at 10 µM: Rattus norvegicus
[3] = test system: LPS-induced microglia activation; experiment: Image-based assay of LPS-induced microglia activation (HTS and dose response); assay type: cell-based, rat; details: Rattus norvegicus, Microglia; for inhibition at 10 µM: primary microglia HTS, LPS stimulation, increased cell size (>800 μm^2) as marker of activation, read-out: LPS % inhibition
[4] = in vitro; details: rat, Cell Toxicity IC50 (uM) [cFib assay]
[5] = test system: primary rat microglia; experiment: Cell toxicity (dead cells, size <150 μm2) in LPS assay; details: for LPS % cell toxicity: primary microglia HTS, LPS stimulation, decreased size (<150 μm^2) as marker of toxicity; for IC50: read-out: Cell Toxicity IC50 (uM) [LPS assay], LPS assay
[6] = in vitro; details: rat
[7] = test system: fibrin-induced microglia activation; experiment: Image-based assay of fibrin-induced microglia activation (HTS and dose response); assay type: cell-based, rat; details: for IC50 / inhibition at 10 µM: Rattus norvegicus, Microglia; for inhibition at 10 µM: primary microglia HTS, fibrin stimulation, increased cell size (>800 μm^2) as marker of activation, read-out: Fibrin % inhibition
[8] = HTS of 1907 compounds, quadrant by fibrin and LPS inhibition
[9] = Microglia, Table 3, read-out: Cherry-picked Hit (Suppl. Table 7)
[10] = Microglia, HTS hit classification, read-out: Hit
[11] = quadrant by fibrin and LPS inhibition in HTS of 1907 compounds
[12] = 48 h, Table 1, dose response 0.001-20 μM, triplicates, primary rat microglia, 48 h, read-out: LPS IC50
[13] = LPS-induced microglia activation, dose response, read-out: LPS IC50 (uM) (Suppl. Table 7)
[14] = Table 3, read-out: LPS IC50 (uM) (Suppl. Table 7)
[15] = dose response, LPS-induced microglia activation, read-out: LPS IC50
[16] = 48 h, Table 1, dose response 0.001-20 μM, triplicates, primary rat microglia, 48 h, read-out: Fibrin IC50
[17] = Table 3, read-out: Fibrin IC50 (uM) (Suppl. Table 7)
[18] = dose response, fibrin-induced microglia activation, read-out: Fibrin IC50
[19] = fibrin-induced microglia activation, dose response, read-out: Fibrin IC50 (uM) (Suppl. Table 7)
[20] = Table 6, read-out: LPS IC50 (uM) (Suppl. Table 7)
[21] = Table 6, read-out: Fibrin IC50 (uM) (Suppl. Table 7)
[22] = listed as Medroxyprogesterone Ac
[23] = hit classification in microglia HTS, read-out: Cherry-picked Hit (Suppl. Table 7)

Row | SMILES | Fibrin % cell toxicity [1] [%] | Quadrant (FIG. 5b) [2, 8] | inhibition at 10 µM [2, 9] [%] | inhibition at 10 µM [2, 10] [%] | Quadrant (FIG. 5b) ([2]; Table 1, screen at 10 μM) | Quadrant (FIG. 5b) ([2]; Table 3, screen at 10 μM) | Quadrant (FIG. 5b) [2, 11] | IC50 [3, 12] [µM] | inhibition at 10 µM ([3]; 48 h) [%] | IC50 [3, 13] [µM] | IC50 [3, 14] [µM] | IC50 [3, 15] [µM] | IC50 ([4]; Table 3) [µM] | IC50 ([4]; cFib assay) [µM] | LPS % cell toxicity [5] [%] | IC50 [6] [µM] | IC50 [7, 16] [µM] | IC50 [7, 18] [µM] | IC50 [7, 19] [µM] | inhibition at 10 µM [7] [%] | further results
1 | O=C1C=C2C=C[C@@H]3C[C@@]2(O1)[C@H]1CCCCN31 [Securinine, reference compound] | 2 | Q2 | > 50 | > 50 | Q2 | Q2 | Q2 | 6 | 106 | 6 | 6 | 6 | > 20 | > 20 | 1 | 12 | 2 | 2 | 2 | 104 | Fibrin Selectivity [7]: 3; Fibrin Selectivity (LOG10) [7]: 0.40; IC50 [7, 17]: 2 µM
2 | CC(=O)O[C@]1(C(C)=O)CC[C@H]2[C@@H]3C[C@H](C)C4=CC(=O)CC[C@]4(C)[C@H]3CC[C@@]21C [Medroxyprogesterone acetate, reference compound] | 1 | Q2 | > 50 | > 50 | Q2 | Q2 | Q2 | > 20 | 56 | > 20 | > 20 | > 20 | > 20 | > 20 | 1 | > 20 | 0.3 | 0.5 | 0.3 | 72 | Quadrant (FIG. 5b) ([2]; microglia HTS, Table 6): Q2; IC50 [3, 20]: > 20 µM; IC50 ([4]; cFib assay, Table 6): > 20 µM; IC50 [5]: > 20 µM; IC50 ([5]; Table 6): > 20 µM; IC50 [7, 17]: 0.3 µM; IC50 [7, 21]: 0.3 µM; Fibrin Selectivity (LOG10) ([7]; fibrin vs LPS, LOG10, Table 6): 1.84 and 1.61; Fibrin Selectivity ([7]; fibrin vs LPS, Table 6): 70 and 41; Fibrin Selectivity [7, 22]: 70 and 41; Fibrin Selectivity (LOG10) [7, 22]: 1.84 and 1.61; Fibrin Selectivity ([7]; listed as Medroxyprogesterone Acetate): 70 and 41
3 | CC(NCCc1ccc(O)cc1)C(O)c1ccc(O)cc1 (stereo not shown) [Ritodrine hydrochloride, reference compound] | 1 | Q3 | > 50 | > 50 | Q3 | Q3 | Q3 | > 20 | 36 | > 20 | > 20 | > 20 | > 20 | > 20 | 1 | > 20 | 0.6 | 0.6 | 0.6 | 51 | Quadrant (FIG. 5b) ([2]; microglia HTS, Table 6): Q3; IC50 [3, 20]: > 20 µM; IC50 ([4]; cFib assay, Table 6): > 20 µM; IC50 [5]: > 20 µM; IC50 ([5]; Table 6): > 20 µM; Fibrin Selectivity [7]: 33; Fibrin Selectivity (LOG10) [7]: 1.51; IC50 [7, 17]: 0.6 µM; IC50 [7, 21]: 0.6 µM; Fibrin Selectivity (LOG10) ([7]; fibrin vs LPS, LOG10, Table 6): 1.51; Fibrin Selectivity ([7]; fibrin vs LPS, Table 6): 33
4 | CCCCC1=NC2(CCCC2)C(=O)N1Cc1ccc(-c2ccccc2-c2nnn[nH]2)cc1 [Irbesartan, reference compound] | 2 | Q3 |  | > 50 | Q3 |  | Q3 | > 20 | 31 | > 20 |  | > 20 |  | > 20 | 1 | > 20 | > 20 | > 20 | > 20 | 66 | inhibition at 10 µM [2, 23]: > 50%
5 | OCc1ccccc1O[C@@H]1O[C@H](CO)[C@@H](O)[C@H](O)[C@H]1O [Salicin, reference compound] | 1 | Q2 |  | > 50 | Q2 |  | Q2 | > 20 | 61 | > 20 |  | > 20 |  | > 20 | 1 | > 20 | > 20 | > 20 | > 20 | 76 | inhibition at 10 µM [2, 23]: > 50%
6 | C=C1C[C@H]2[C@@H]3C=C(C)C4=CC(=O)CC[C@]4(C)[C@H]3CC[C@]2(C)[C@@]1(OC(C)=O)C(C)=O [Melengestrol acetate, reference compound] | 2 | Q2 | > 50 | > 50 | Q2 | Q2 | Q2 | 13 | 67 | 13 | 13 | 13 | > 20 | > 20 | 2 | > 20 | 0.07 | 0.07 | 0.07 | 86 | Quadrant (FIG. 5b) ([2]; microglia HTS, Table 6): Q2; IC50 [3, 20]: 13 µM; IC50 ([4]; cFib assay, Table 6): > 20 µM; IC50 [5]: > 20 µM; IC50 ([5]; Table 6): > 20 µM; Fibrin Selectivity [7]: 196; Fibrin Selectivity (LOG10) [7]: 2.29; IC50 [7, 17]: 0.07 µM; IC50 [7, 21]: 0.07 µM; Fibrin Selectivity (LOG10) ([7]; fibrin vs LPS, LOG10, Table 6): 2.29; Fibrin Selectivity ([7]; fibrin vs LPS, Table 6): 196
7 | C=N[C@@H](C(=O)N[C@@H]1C(=O)N2[C@@H]1SC(C)(C)[C@@H]2C(=O)O)c1ccccc1 [Metampicillin sodium, reference compound] | 1 | Q3 |  | > 50 | Q3 |  | Q3 | > 20 | 35 | > 20 |  | > 20 |  | > 20 | 0 | > 20 | 20 | 20 | 20 | 68 | inhibition at 10 µM [2, 23]: > 50%
8 | CNC(C)(C)Cc1ccccc1 [Mephentermine sulfate, reference compound] | 2 | Q3 |  | > 50 | Q3 |  | Q3 | > 20 | 31 | > 20 |  | > 20 |  | > 20 | 1 | > 20 | > 20 | > 20 | > 20 | 60 | inhibition at 10 µM [2, 23]: > 50%
9 | CC(=O)OCC(=O)[C@@]1(O)CC[C@H]2[C@@H]3CCC4=CC(=O)C=C[C@]4(C)[C@@]3(Cl)[C@@H](Cl)C[C@@]21C [Dichlorisone acetate, reference compound] | 3 | Q2 | > 50 | > 50 | Q2 | Q2 | Q2 | 4 | 74 | 4 | 4 | 4 | > 20 | > 20 | 1 | > 20 | 0.03 | 0.03 | 0.03 | 108 | Quadrant (FIG. 5b) ([2]; microglia HTS, Table 6): Q2; IC50 [3, 20]: 4 µM; IC50 ([4]; cFib assay, Table 6): > 20 µM; IC50 [5]: > 20 µM; IC50 ([5]; Table 6): > 20 µM; Fibrin Selectivity [7]: 169; Fibrin Selectivity (LOG10) [7]: 2.23; IC50 [7, 17]: 0.03 µM; IC50 [7, 21]: 0.03 µM
